Consider eight compounds from PubChem BioAssay AID1259411 (Chemical Carcinogenesis Research Information System (CCRIS), 2018).

Activity calls are given as the source filed them. No rule for the calls is given here.

The series concerns rodent carcinogenicity bioassays, tumor incidence. The experiment in a line: CCRIS carcinogenicity studies. The settings on record: Dose: 0, Dose: 0. An outline of the steps: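 Archive of carcinogenicity, mutagenicity, tumor promotion and tumor inhibition results drawn from journals, NCI reports and other sources, expert-reviewed; covers 1985-2011 and is no longer updated.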

Turning to `CC(F)(Cl)Cl`, the carcinogen call was “inactive; negative” (Species: RAT, Strain/Sex: SPRAGUE-DAWLEY/FEMALE, Route: INHALATION, 1500, 5000, 20000 PPM 6 HR/D 5 D/WK FOR 104 WK (THE HIGH EXPOSURE LEVEL WAS INCREASED FROM 15000 PPM TO 20000 PPM AFT, 1500, 5000, 20000 PPM 6 HR/D 5 D/WK FOR 104 WK (THE HIGH EXPOSURE LEVEL WAS INCREASED FROM 15000 PPM TO 20000 PPM AFT) and “active; positive” (Species: RAT, Strain/Sex: SPRAGUE-DAWLEY/MALE, Route: INHALATION, 1500, 5000, 20000 PPM 6 HR/D 5 D/WK FOR 104 WK (THE HIGH EXPOSURE LEVEL WAS INCREASED FROM 15000 PPM TO 20000 PPM AFT, 1500, 5000, 20000 PPM 6 HR/D 5 D/WK FOR 104 WK (THE HIGH EXPOSURE LEVEL WAS INCREASED FROM 15000 PPM TO 20000 PPM AFT, Tumor Site: Type of Lesion: TESTES: INTERSTITIAL CELL ADENOMA).
`O=S(=O)(O)c1c(N=Nc2c(O)ccc3ccccc23)ccc2ccccc12`: the carcinogen call runs as follows: (Species: MOUSE, Strain/Sex: ICR/FEMALE, Route: DERMAL, 1 MG IN 0.1 ML DISTILLED WATER 2/WK FOR A MEAN TOTAL DOSE OF 128.1 MG (STUDY DURATION: 18 MO)) “inactive; negative”; (Species: MOUSE, Strain/Sex: ICR/MALE, Route: DERMAL, 1 MG IN 0.1 ML DISTILLED WATER 2/WK FOR A MEAN TOTAL DOSE OF 128.1 MG (STUDY DURATION: 18 MO)) “inactive; negative”.
As to `c1ccc2c(c1)ccc1cc3c4c(ccc3cc12)CCCC4`, the carcinogen call (Species: MOUSE, Strain/Sex: SWISS/FEMALE, Route: DERMAL, 32 UG AS 0.2% SOLUTION IN ACETONE APPLIED TO INTERSCAPULAR REGION 2/WK FOR 50 WK (STUDY DURATION: 60 WK), Tumor Site: Type of Lesion: SKIN: CARCINOMA) is “active; positive”.
With `N#CS`, the carcinogen call (Species: RAT, Strain/Sex: F344/FEMALE, Route: ORAL, 0.32% IN DRINKING WATER 5 D/WK FOR 112 WK (STUDY DURATION: 130 WK)) was “inactive; negative” and the carcinogen call (Species: RAT, Strain/Sex: F344/MALE, Route: ORAL, 0.32% IN DRINKING WATER 5 D/WK FOR 112 WK (STUDY DURATION: 130 WK)) is “inactive; negative”.
As for `OCC(O)CCl` (stereo not drawn), the carcinogen call runs as follows: (Species: Rat, Strain/Sex: Sprague-Dawley/Female, Route: Oral, 25, 100, 400 ppm in drinking water for 2 yr (Study duration: 104 wk), 25, 100, 400 ppm in drinking water for 2 yr (Study duration: 104 wk), Tumor Site: Type of Lesion: Kidney: Renal tubule adenoma or carcinoma) “active; positive”; (Species: Rat, Strain/Sex: Sprague-Dawley/Male, Route: Oral, 25, 100, 400 ppm in drinking water for 2 yr (Study duration: 100 wk), 25, 100, 400 ppm in drinking water for 2 yr (Study duration: 100 wk), Tumor Site: Type of Lesion: Kidney: Renal tubule adenoma or carcinoma, Testes: Leydig cell tumor) “active; positive”.
`Cc1c([N+](=O)[O-])c(C)c([N+](=O)[O-])c(C(C)(C)C)c1[N+](=O)[O-]`: the carcinogen call runs as follows: (Species: MOUSE, Strain/Sex: B6C3F1/FEMALE, Route: ORAL, 0.075, 0.15% IN DIET FOR 80 WK (STUDY DURATION: 80 WK), 0.075, 0.15% IN DIET FOR 80 WK (STUDY DURATION: 80 WK), Tumor Site: Type of Lesion: LIVER: ADENOMA) “active; positive”; (Species: MOUSE, Strain/Sex: B6C3F1/MALE, Route: ORAL, 0.075, 0.15% IN DIET FOR 80 WK (STUDY DURATION: 80 WK), 0.075, 0.15% IN DIET FOR 80 WK (STUDY DURATION: 80 WK), Tumor Site: Type of Lesion: LIVER: ADENOMA, CARCINOMA, HARDERIAN GLAND: ADENOMA) “active; positive”.
In the case of `OC1c2nc3c(ccc4ccccc43)cc2C2OC2C1O` (stereo not drawn), the carcinogen call by setting is: (Species: MOUSE, Strain/Sex: SWISS/FEMALE, Route: INTRAPERITONEAL, 1.05 UMOL GIVEN AS 150 NMOL IN 5 µL DMSO WITHIN 24 HR OF BIRTH, 300 NMOL IN 10 µL DMSO ON D 8 OF LIFE, AND 600 NMOL I) “inactive; negative”; (Species: MOUSE, Strain/Sex: SWISS/MALE, Route: INTRAPERITONEAL, 1.05 UMOL GIVEN AS 150 NMOL IN 5 µL DMSO WITHIN 24 HR OF BIRTH, 300 NMOL IN 10 µL DMSO ON D 8 OF LIFE, AND 600 NMOL I) “inactive; negative”.
As to `COc1ccccc1[N+](=O)[O-]`, the carcinogen call (Species: MOUSE, Strain/Sex: B6C3F1/MALE, Route: ORAL, 666, 2000, 6000 PPM IN DIET FOR 103 WK (STUDY DURATION: 103 WK), 666, 2000, 6000 PPM IN DIET FOR 103 WK (STUDY DURATION: 103 WK), Tumor Site: Type of Lesion: LIVER: HEPATOBLASTOMA, HEPATOCELLULAR ADENOMA) was “active; positive”; the carcinogen call (Species: RAT, Strain/Sex: F344/N/FEMALE, Route: ORAL, 222, 666, 2000 PPM IN DIET FOR 103 WK (STUDY DURATION: 103 WK), 222, 666, 2000 PPM IN DIET FOR 103 WK (STUDY DURATION: 103 WK)) is “inactive; negative”; the carcinogen call (Species: RAT, Strain/Sex: F344/N/FEMALE, Route: ORAL, 6000, 18,000 PPM IN DIET FOR 27 WK (STUDY DURATION: 104 WK), 6000, 18,000 PPM IN DIET FOR 27 WK (STUDY DURATION: 104 WK), Tumor Site: Type of Lesion: COLON: ADENOMATOUS POLYP, URINARY BLADDER: CARCINOMA, SARCOMA) is “active; positive”; the carcinogen call (Species: RAT, Strain/Sex: F344/N/MALE, Route: ORAL, 222, 666, 2000 PPM IN DIET FOR 103 WK (STUDY DURATION: 103 WK), 222, 666, 2000 PPM IN DIET FOR 103 WK (STUDY DURATION: 103 WK)) is “inactive; negative”; the carcinogen call (Species: RAT, Strain/Sex: F344/N/MALE, Route: ORAL, 6000, 18,000 PPM IN DIET FOR 27 WK (STUDY DURATION: 104 WK), 6000, 18,000 PPM IN DIET FOR 27 WK (STUDY DURATION: 104 WK), Tumor Site: Type of Lesion: COLON: ADENOMATOUS POLYP, KIDNEY: CARCINOMA, URINARY BLADDER: CARCINOMA, SARCOMA, Tumor Site: Type of Lesion: COLON: ADENOMATOUS POLYP, KIDNEY: CARCINOMA, URINARY BLADDER: CARCINOMA, SARCOMA) was “active; positive”.
